In patent US9440957B2, “Compounds and compositions for modulating EGFR Activity” (Novartis AG, priority 2012, dated 2016) one finds IC50 data, which are given here for 21 compounds.

Like-named read-outs stand apart in the source and are kept apart here.

Assay [1] concerns the target human EGFR L858R/T790M (NIH/3T3 cells) (Homo sapiens, UniProt P00533, L858R/T790M). Description: EGFR target modulation in engineered NIH/3T3 cell lines (phospho-EGFR Y1068 AlphaLISA), EGFR L858R/T790M. Type of assay: cell-based. Conditions: engineered NIH/3T3 cells, read-out: NIH3T3 IC50 (μM) EGFR (L858R/T790M). The gist of the method:
(§1)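 Read-out is phospho-Y1068 AlphaLISA on cell lysates, with anti-total EGFR at 1 nM final equilibrated 1 h at room temperature. Cells were dosed 3 h with a 12-point 1:3 series starting from a 10 μM stock. Only the WT line received 50 ng/ml EGF for 5 min.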
A general note: Bead proximity is the source of the signal in Alpha formats.

Another assay concerns the target T1, EGFR(L858R/T790M) (Homo sapiens, UniProt P00533, L858R/T790M).
T1 construct: purchased from Carna (GST-a.a. 669-1210)
Briefly: EGFR biochemical assay (HTRF), IC50 determinations. The gist of the method:
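HTRF kinase reaction with biotin-TK peptide at room temperature, quenched with EDTA at 60 min and detected with PT66K/SAXL after 1 h. Without preincubation, enzyme starts the reaction with compound, ATP and peptide present. With preincubation, compound, enzyme and peptide sit at room temperature for a set time before ATP is added.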

The target of assay [2] is human EGFR WT (NIH/3T3 cells, EGF-induced) (Homo sapiens, UniProt P00533). Briefly: EGFR target modulation in engineered NIH/3T3 cell lines (phospho-EGFR Y1068 AlphaLISA), EGFR WT. Type of assay: cell-based. Conditions: engineered NIH/3T3 cells, read-out: NIH3T3 IC50 (μM) EGFR (WT). The gist of the method: as §1
human EGFR WT (NIH/3T3 cells, EGF-induced), sequence (P00533 25-1210): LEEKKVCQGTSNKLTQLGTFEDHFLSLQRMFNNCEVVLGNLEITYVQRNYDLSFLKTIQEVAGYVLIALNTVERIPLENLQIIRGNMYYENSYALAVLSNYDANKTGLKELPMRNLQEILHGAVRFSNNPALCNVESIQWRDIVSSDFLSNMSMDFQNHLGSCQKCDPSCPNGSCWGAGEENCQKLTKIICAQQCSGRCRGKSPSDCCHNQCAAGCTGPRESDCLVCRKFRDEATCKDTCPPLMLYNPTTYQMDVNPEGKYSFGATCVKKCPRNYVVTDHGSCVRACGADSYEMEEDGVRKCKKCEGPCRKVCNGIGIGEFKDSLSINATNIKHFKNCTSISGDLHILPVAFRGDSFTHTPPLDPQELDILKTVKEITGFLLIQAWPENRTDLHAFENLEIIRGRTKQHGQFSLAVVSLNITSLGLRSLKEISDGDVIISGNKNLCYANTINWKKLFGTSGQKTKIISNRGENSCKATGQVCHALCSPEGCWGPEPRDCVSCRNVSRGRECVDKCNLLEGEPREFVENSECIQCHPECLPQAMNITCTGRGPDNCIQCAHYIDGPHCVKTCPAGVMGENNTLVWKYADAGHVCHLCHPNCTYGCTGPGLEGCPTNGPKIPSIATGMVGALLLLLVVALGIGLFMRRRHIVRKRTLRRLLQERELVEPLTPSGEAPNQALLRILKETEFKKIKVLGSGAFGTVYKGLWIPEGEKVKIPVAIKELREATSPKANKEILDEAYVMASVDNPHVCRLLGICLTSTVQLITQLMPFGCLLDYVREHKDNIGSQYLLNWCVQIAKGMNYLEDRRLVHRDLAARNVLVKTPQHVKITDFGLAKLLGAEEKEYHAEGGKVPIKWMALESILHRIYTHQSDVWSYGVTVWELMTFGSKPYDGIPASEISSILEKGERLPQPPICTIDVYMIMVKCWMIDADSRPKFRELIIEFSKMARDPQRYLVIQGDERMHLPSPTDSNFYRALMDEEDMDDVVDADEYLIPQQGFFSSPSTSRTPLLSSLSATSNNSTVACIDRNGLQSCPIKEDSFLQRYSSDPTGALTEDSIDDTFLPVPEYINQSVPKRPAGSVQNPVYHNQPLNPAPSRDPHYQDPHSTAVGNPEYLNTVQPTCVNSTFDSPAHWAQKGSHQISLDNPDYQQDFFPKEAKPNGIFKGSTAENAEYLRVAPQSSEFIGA
Assay [3] deals with human EGFR L858R (NIH/3T3 cells) (Homo sapiens, UniProt P00533, L858R). Briefly: EGFR target modulation in engineered NIH/3T3 cell lines (phospho-EGFR Y1068 AlphaLISA), EGFR L858R. In kind it is cell-based. Conditions: engineered NIH/3T3 cells, read-out: NIH3T3 IC50 (μM) EGFR (L858R). The gist of the method:
as §1

Where [4] appears, read: EGFR (L858R/T790M) with 90 min pre-incubation, read-out: IC50 (μM) Column B.
Where [5] appears, read: EGFR (L858R/T790M) with no pre-incubation, read-out: IC50 (μM) Column A.

human EGFR L858R/T790M (NIH/3T3 cells), sequence (P00533 25-1210 T790M/L858R): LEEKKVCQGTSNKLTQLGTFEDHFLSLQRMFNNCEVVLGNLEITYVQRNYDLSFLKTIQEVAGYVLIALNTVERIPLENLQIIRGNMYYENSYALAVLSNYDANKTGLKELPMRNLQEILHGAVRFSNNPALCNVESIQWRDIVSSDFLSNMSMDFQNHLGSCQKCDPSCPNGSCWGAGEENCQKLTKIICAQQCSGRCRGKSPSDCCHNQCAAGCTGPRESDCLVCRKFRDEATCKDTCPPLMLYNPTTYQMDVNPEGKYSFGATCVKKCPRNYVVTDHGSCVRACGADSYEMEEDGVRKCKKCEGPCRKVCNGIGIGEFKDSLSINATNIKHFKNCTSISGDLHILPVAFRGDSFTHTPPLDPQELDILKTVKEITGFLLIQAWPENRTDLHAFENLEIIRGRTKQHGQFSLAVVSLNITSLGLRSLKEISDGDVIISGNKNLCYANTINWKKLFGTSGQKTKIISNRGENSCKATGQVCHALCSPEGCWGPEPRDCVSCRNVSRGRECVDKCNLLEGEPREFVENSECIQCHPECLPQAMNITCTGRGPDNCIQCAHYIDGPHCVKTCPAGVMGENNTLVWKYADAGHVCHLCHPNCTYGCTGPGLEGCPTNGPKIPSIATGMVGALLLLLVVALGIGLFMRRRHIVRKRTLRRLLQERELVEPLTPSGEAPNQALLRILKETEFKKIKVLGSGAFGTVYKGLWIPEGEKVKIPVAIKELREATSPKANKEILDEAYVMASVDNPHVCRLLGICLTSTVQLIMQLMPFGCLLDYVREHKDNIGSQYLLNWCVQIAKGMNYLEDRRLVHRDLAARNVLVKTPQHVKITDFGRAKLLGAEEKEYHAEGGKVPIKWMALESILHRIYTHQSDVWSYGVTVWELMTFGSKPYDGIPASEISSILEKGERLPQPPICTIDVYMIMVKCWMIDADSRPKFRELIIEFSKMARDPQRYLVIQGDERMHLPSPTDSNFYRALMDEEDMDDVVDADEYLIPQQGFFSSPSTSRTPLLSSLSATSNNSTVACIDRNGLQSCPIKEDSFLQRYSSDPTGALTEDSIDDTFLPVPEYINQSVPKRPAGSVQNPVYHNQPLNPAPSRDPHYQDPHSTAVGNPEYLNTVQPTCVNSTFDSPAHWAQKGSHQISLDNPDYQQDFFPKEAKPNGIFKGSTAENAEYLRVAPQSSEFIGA
human EGFR L858R (NIH/3T3 cells), sequence (P00533 25-1210 L858R): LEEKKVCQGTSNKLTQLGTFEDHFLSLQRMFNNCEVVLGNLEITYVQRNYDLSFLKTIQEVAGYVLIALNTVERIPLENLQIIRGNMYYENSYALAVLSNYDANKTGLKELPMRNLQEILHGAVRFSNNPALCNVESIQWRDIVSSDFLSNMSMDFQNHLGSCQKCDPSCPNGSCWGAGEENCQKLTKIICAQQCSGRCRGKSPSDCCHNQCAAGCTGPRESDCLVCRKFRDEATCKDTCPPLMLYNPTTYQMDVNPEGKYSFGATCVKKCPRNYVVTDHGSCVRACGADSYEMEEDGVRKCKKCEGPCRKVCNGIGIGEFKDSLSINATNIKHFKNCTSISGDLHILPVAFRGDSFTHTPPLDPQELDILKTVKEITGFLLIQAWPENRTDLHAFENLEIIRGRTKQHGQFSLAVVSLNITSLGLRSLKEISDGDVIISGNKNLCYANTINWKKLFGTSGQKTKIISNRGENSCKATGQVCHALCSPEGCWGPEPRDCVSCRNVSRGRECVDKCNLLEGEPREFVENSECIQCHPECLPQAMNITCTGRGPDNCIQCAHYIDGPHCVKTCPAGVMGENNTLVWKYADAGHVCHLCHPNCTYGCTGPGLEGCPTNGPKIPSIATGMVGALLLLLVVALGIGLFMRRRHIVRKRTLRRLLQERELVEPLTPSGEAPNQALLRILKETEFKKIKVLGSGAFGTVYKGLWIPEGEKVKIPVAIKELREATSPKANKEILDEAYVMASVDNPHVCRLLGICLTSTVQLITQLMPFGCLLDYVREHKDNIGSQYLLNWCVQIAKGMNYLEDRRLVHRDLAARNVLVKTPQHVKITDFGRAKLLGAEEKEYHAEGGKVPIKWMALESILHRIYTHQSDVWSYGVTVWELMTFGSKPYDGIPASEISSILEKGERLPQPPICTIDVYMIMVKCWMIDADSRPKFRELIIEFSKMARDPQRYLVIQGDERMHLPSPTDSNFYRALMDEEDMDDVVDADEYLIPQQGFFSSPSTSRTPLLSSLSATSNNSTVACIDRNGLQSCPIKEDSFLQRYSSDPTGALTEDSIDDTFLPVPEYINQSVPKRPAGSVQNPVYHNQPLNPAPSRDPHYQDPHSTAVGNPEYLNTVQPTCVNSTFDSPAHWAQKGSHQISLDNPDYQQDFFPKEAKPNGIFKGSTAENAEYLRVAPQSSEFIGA
T1 sequence (P00533 669-1210 T790M/L858R): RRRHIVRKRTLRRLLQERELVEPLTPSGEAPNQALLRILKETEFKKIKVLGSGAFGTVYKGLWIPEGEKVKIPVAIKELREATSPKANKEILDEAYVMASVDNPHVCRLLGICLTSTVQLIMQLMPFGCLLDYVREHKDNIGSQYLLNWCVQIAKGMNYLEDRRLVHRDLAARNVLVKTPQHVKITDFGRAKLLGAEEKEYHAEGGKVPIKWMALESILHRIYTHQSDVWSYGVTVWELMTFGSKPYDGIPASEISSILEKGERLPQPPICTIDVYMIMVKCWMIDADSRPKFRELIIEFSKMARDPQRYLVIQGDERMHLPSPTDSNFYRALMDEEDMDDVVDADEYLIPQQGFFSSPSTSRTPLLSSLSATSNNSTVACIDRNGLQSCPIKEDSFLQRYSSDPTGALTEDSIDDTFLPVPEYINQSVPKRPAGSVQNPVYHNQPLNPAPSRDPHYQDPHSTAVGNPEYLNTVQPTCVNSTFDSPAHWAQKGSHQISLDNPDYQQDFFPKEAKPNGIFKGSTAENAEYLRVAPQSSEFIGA

As to `CC#CC(=O)N1CCCCC(n2c(NC(=O)c3cccc(C(F)(F)F)c3)nc3cccc(C)c32)C1` (stereo not drawn) [Example 17-19], the IC50 is 0.044 µM in assay [1]; 0.007 µM on EGFR(L858R/T790M) (setting [4]); 0.33 µM on EGFR(L858R/T790M) (setting [5]); more than 10 µM in assay [2]; 0.33 µM in assay [3].
For `Cc1cccc2nc(NC(=O)c3ccco3)n(C3CCCCN(C(=O)/C=C/CN(C)C)C3)c12` (stereo not drawn) [Example 17-56], the IC50 in assay [1] worked out at 0.008 µM; at EGFR(L858R/T790M) (setting [4]), 0.002 µM; on EGFR(L858R/T790M) (setting [5]) it was 0.02 µM; in assay [2], 0.263 µM; in assay [3] it was 0.017 µM.
On to `C=CC(=O)N1CCCC[C@@H](n2c(NC(=O)c3ccccc3)nc3cccc(CN(C)CCS(C)(=O)=O)c32)C1` [Example 17-133], for which the IC50 worked out at 0.006 µM in assay [1]; 0.001 µM on EGFR(L858R/T790M) (setting [4]); 0.018 µM on EGFR(L858R/T790M) (setting [5]); 1.29 µM in assay [2]; 0.041 µM in assay [3].
With `Cc1cccc2nc(NC(=O)c3cccc(C(F)(F)F)c3)n([C@@H]3COCCN(C(=O)/C=C/CN(C)C)C3)c12` [Example 17-7], the IC50 in assay [1] was 0.003 µM; at EGFR(L858R/T790M) (setting [4]), less than 0.001 µM; at EGFR(L858R/T790M) (setting [5]), 0.005 µM; in assay [2], 0.55 µM; in assay [3], 0.015 µM.
Consider `Cc1cccc2nc(NC(=O)c3cnccn3)n(C3CCCCN(C(=O)/C=C/CN(C)C)C3)c12` (stereo not drawn) [Example 17-38], for which the IC50 amounted to 0.049 µM in assay [1]; 0.006 µM at EGFR(L858R/T790M) (setting [4]); 0.117 µM at EGFR(L858R/T790M) (setting [5]); 1.92 µM in assay [2]; 0.093 µM in assay [3].
With `Cc1cccc2nc(NC(=O)c3ccc4nccn4c3)n(C3CCCCN(C(=O)/C=C/CN(C)C)C3)c12` (stereo not drawn) [Example 17-55], the IC50 was 0.003 µM in assay [1]; less than 0.001 µM on EGFR(L858R/T790M) (setting [4]); 0.007 µM on EGFR(L858R/T790M) (setting [5]); 0.022 µM in assay [2]; 0.002 µM in assay [3].
Taken in the same sequence, the figures for `C=C(CN1CCOCC1)C(=O)N1CCCC[C@@H](n2c(NC(=O)c3ccnnc3)nc3cccc(C)c32)C1` [Example 17-93] were 0.35 µM, 0.059 µM, 0.39 µM, 4.2 µM and 0.281 µM.
On to `C=CC(=O)N1CCCCC(n2c(NC(=O)c3ccccc3)nc3cccc(C(=O)NCCS(C)(=O)=O)c32)C1` (stereo not drawn) [Example 17-139], for which the IC50 is 0.043 µM in assay [1]; 0.005 µM on EGFR(L858R/T790M) (setting [4]); 0.147 µM at EGFR(L858R/T790M) (setting [5]); more than 9.1 µM in assay [2]; 0.305 µM in assay [3].
With `Cc1cccc2nc(NC(=O)c3ccnc(C(C)(C)C)c3)n(C3CCCCN(C(=O)/C=C/CN(C)C)C3)c12` (stereo not drawn) [Example 17-61], the IC50 in assay [1] was 0.003 µM; at EGFR(L858R/T790M) (setting [4]), less than 0.001 µM; on EGFR(L858R/T790M) (setting [5]), 0.004 µM; in assay [2], 0.011 µM; in assay [3] it was less than 0.001 µM.
As for `Cc1cccc2nc(NC(=O)c3cccc(Cl)c3F)n(C3CCCCN(C(=O)/C=C/CN(C)C)C3)c12` (stereo not drawn) [Example 17-31], the IC50 in assay [1] is 0.005 µM; at EGFR(L858R/T790M) (setting [4]) it was less than 0.001 µM; on EGFR(L858R/T790M) (setting [5]), 0.016 µM; in assay [2], 0.75 µM; in assay [3], 0.019 µM.
Regarding `C=CC(=O)N1CCCCC(n2c(NC(=O)c3ccccc3)nc3cccc(C(=O)N4CCS(=O)(=O)CC4)c32)C1` (stereo not drawn) [Example 17-115], the IC50 in assay [1] is 0.165 µM; on EGFR(L858R/T790M) (setting [4]), 0.013 µM; at EGFR(L858R/T790M) (setting [5]) it was 3.5 µM; in assay [2], more than 10 µM; in assay [3], 1.6 µM.
Taken in the same sequence, the figures for `CN(C)C/C=C/C(=O)N1CCCCC(n2c(NC(=O)c3cccc(C(F)(F)F)c3)nc3cc(CO)cc(C#N)c32)C1` (stereo not drawn) [Example 17-116] were 0.008 µM, less than 0.001 µM, 0.011 µM, 0.47 µM and 0.019 µM.
For `C=CC(=O)N1CCOCC(n2c(NC(=O)c3cccc(C(F)(F)F)c3)nc3cccc(C)c32)C1` (single isomer, unassigned) [Example 21-7A], the IC50 in assay [1] is 0.49 µM; at EGFR(L858R/T790M) (setting [4]), 0.56 µM; at EGFR(L858R/T790M) (setting [5]), 2.01 µM; in assay [2], more than 10 µM; in assay [3], 3.2 µM.
Turning to `C=CC(=O)N1CCCC(n2c(NC(=O)c3cccc(C(F)(F)F)c3)nc3c2CN(S(C)(=O)=O)CC3)C1` (stereo not drawn) [Example 17-171], the IC50 was 0.16 µM in assay [1]; 0.316 µM at EGFR(L858R/T790M) (setting [4]); 2.4 µM at EGFR(L858R/T790M) (setting [5]); 9.9 µM in assay [2]; 1.86 µM in assay [3].
Turning to `C=CC(=O)N1CCC[C@@H](n2c(NC(=O)c3cccc(C(F)(F)F)c3)nc3cc(CO)ccc32)C1` [Example 17-121], the IC50 in assay [1] is 0.016 µM; on EGFR(L858R/T790M) (setting [4]), less than 0.001 µM; on EGFR(L858R/T790M) (setting [5]), 0.127 µM; in assay [2], more than 10 µM; in assay [3], 0.259 µM.
For the compound `C=CC(=O)N1CCCC[C@@H](n2c(NC(=O)c3cccc(C(F)(F)F)c3)nc3cccc(C(=O)OC)c32)C1` [Example 17-96], the IC50 was 0.004 µM in assay [1]; 0.011 µM at EGFR(L858R/T790M) (setting [4]); 0.106 µM at EGFR(L858R/T790M) (setting [5]); 1.98 µM in assay [2]; 0.016 µM in assay [3].
Turning to `Cc1cccc2nc(NC(=O)c3cccnn3)n(C3CCCCN(C(=O)/C=C/CN(C)C)C3)c12` (stereo not drawn) [Example 17-39], the IC50 worked out at 0.072 µM in assay [1]; 0.007 µM on EGFR(L858R/T790M) (setting [4]); 0.12 µM on EGFR(L858R/T790M) (setting [5]); 5.2 µM in assay [2]; 0.221 µM in assay [3].
Taken in the same sequence, the figures for `C=CC(=O)N1CCCC(n2c(NC(=O)c3cccc(C(F)(F)F)c3)nc3c2CCN(S(C)(=O)=O)C3)C1` (stereo not drawn) [Example 17-168] were 0.072 µM, 0.095 µM, 1.11 µM, more than 2.77 µM and 0.6 µM.
`Cc1cccc2nc(NC(=O)c3ccc(F)c(Cl)c3F)n(C3CCCCN(C(=O)/C=C/CN(C)C)C3)c12` (stereo not drawn) [Example 17-32]: the IC50 was 0.004 µM in assay [1]; less than 0.001 µM at EGFR(L858R/T790M) (setting [4]); 0.014 µM at EGFR(L858R/T790M) (setting [5]); 0.206 µM in assay [2]; 0.007 µM in assay [3].
For `C=C(CN1CCCC1)C(=O)N1CCCC[C@@H](n2c(NC(=O)c3ccnnc3)nc3cccc(C)c32)C1` [Example 17-91], the IC50 in assay [1] amounted to 0.042 µM; on EGFR(L858R/T790M) (setting [4]), 0.007 µM; on EGFR(L858R/T790M) (setting [5]) it was 0.198 µM; in assay [2] it was 1.01 µM; in assay [3], 0.033 µM.
Taken in the same sequence, the figures for `Cc1cccc2nc(NC(=O)c3ccc4ccccc4c3)n(C3CCCCN(C(=O)/C=C/CN(C)C)C3)c12` (stereo not drawn) [Example 17-66] were 0.009 µM, less than 0.001 µM, 0.005 µM, 0.129 µM and 0.005 µM.
